The source of these data is PMC9953308, “The Mechanism of Enantioselective Neurosteroid Actions on GABAA Receptors” (Biomolecules, 2023).

SMILES strings stand for the structures.

In assay [1] the target is T1, α1β3 GABAA receptor (β3 subunit; β3-α1 intersubunit site) (Homo sapiens, UniProt P14867+P28472).
T1 construct: gene GABRB3; human α1-8xHis-FLAG and human β3 GABAA receptor in HEK-T-Rex-293 membranes; human α1β3 in Xenopus oocytes for EC50; with GABAA receptor α1 subunit (GABRA1)
T1 sequence (P28472 26-473): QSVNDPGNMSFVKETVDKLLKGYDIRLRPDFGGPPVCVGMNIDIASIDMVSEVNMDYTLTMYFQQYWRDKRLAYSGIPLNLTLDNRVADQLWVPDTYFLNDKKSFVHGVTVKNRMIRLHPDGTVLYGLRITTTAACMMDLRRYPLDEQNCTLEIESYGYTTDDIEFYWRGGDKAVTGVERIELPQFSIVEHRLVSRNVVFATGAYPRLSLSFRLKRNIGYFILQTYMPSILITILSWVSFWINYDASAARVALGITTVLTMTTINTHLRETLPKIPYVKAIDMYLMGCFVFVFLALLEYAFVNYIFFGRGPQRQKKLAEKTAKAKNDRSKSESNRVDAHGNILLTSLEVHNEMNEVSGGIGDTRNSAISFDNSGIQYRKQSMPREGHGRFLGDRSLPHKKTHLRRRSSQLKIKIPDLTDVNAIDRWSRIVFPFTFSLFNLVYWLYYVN
T1 sequence (P14867 28-456): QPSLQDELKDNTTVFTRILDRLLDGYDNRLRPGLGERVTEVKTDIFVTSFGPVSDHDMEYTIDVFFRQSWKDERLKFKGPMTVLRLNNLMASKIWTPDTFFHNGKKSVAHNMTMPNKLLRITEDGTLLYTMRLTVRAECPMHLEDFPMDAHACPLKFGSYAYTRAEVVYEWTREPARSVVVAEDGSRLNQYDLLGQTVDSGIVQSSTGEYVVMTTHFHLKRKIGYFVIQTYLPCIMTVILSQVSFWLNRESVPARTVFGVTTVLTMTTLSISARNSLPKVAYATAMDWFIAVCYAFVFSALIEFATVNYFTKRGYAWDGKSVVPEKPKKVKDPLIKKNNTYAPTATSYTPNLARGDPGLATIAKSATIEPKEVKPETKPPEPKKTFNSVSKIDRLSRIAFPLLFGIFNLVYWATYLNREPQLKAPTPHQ
The experiment in a line: competitive prevention of KK200/KK123 photolabeling with MS readout; EC50 from oocyte two-electrode voltage clamp (potentiation of GABA currents). It is filed as cell-based.

The target in assay [2] is T2, α1β3 GABAA receptor (α1 subunit) (Homo sapiens, UniProt P14867).
T2 construct: gene GABRA1; human α1-8xHis-FLAG and human β3 GABAA receptor in HEK-T-Rex-293 membranes; with GABAA receptor β3 subunit (GABRB3)
T2 sequence (P14867 28-456): T1 sequence (P14867 28-456)
T2 sequence (P28472 26-473 partner): T1 sequence (P28472 26-473)
The assay can be described thus: photoaffinity labeling ([…]) with middle-down MS identification of adducted residue. In kind it is binding.

In assay [3] the target is T1, α1β3 GABAA receptor (β3 subunit; β3-α1 intersubunit site). The assay can be described thus: competitive prevention of KK123 photolabeling with MS readout; EC50 from oocyte two-electrode voltage clamp (weak potentiation of GABA currents). It is filed as cell-based.

For `CC(=O)[C@H]1CC[C@H]2[C@@H]3CC[C@H]4C[C@H](O)CC[C@]4(C)[C@H]3CC[C@]12C` [ALLO, 3α-hydroxy-5α-pregnan-20-one], the EC50 in assay [1] was 80 ± 10 nM.

In the case of `C#CCCO[C@@H]1C[C@@]2(C)[C@@H]3CC[C@]4(C)[C@H](CC[C@H]4OC)[C@H]3CC3(N=N3)[C@@H]2C[C@H]1O` [KK152], in assay [2], the “photoaffinity labeling (30 μM) with middle-down MS identification of adducted re” value is “A fragmentation ion spectrum of this peptide identified Tyr415 as the site of KK152 adduction”.

Take `CC(=O)[C@@H]1CC[C@@H]2[C@H]3CC[C@@H]4C[C@@H](O)CC[C@@]4(C)[C@@H]3CC[C@]21C` [ent-ALLO, ent-allopregnanolone]: the EC50 in assay [3] was 2000 ± 300 nM.
